We go through 21 molecules from US11878965B2, “Inhibitors of peptidylarginine deiminases” (Gilead Sciences, Inc., priority 2020, dated 2024).

The target of this experiment is human PAD4 (Homo sapiens (Human), UniProt Q9UM07). Briefly: In Vitro PAD4 BAEE Biochemical Assay. As to conditions: human PAD4, BAEE substrate; 5 nM PAD4, 2 mM calcium chloride, 3 mM BAEE; geometric mean of multiple experiments. In short, it runs like this: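 Deimination of BAEE substrate (3 mM) measured as ammonia via o-phthalaldehyde–DTT isoindole fluorescence, 405/535 nm. Tag-free bacterially expressed human PAD4 at 5 nM with 2 mM calcium chloride, pH 7.6 MOPS buffer, 30 min compound preincubation then 2 h reaction, both at 25 °C.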
Chain of human PAD4 (Q9UM07 2-663): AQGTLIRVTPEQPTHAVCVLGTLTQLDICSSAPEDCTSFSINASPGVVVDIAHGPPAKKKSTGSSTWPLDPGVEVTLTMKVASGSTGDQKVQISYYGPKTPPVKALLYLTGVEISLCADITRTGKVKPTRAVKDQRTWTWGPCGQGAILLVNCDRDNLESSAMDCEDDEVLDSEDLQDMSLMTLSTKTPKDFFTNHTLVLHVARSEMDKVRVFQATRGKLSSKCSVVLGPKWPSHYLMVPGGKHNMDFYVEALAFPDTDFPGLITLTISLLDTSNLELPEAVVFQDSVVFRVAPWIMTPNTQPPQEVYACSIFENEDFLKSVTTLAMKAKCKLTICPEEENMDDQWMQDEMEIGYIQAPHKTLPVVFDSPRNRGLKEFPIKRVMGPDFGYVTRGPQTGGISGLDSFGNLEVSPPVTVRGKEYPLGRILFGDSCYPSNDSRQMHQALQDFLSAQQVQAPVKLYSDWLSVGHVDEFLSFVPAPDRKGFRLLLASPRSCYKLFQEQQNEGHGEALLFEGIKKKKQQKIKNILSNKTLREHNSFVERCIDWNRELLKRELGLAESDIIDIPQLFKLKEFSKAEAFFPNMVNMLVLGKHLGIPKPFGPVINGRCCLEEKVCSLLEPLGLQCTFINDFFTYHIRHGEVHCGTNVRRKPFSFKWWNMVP
What is called IC50 is the point on the concentration scale where inhibition reaches its midpoint. As to `COc1cc(C(=O)N2CCC[C@@H](N)C2)cc2nc(-c3cc4ccc(N5CCCS5(=O)=O)nc4n3CC3CC3)n(C)c12` [Example 96, (R)-(3-aminopiperidin-1-yl)(2-(1-(cyclopropylmethyl)-6-(1,1-dioxidoisothiazolidin-2-yl)-1H-pyrrolo[2,3-b]pyridin-2-yl)-7-methoxy-1-methyl-1H-benzo[d]imidazol-5-yl) methanone], the half-inhibitory concentration (IC50) was found to be 1050 nM.
For `COc1cc(C(=O)N2CCC[C@@H](N)C2)cc2nc(-c3cc4ccc(N5CCCCS5(=O)=O)nc4n3CC3CC3)n(C)c12` [Example 97, (R)-(3-aminopiperidin-1-yl) (2-(1-(cyclopropylmethyl)-6-(1,1-dioxido-1,2-thiazinan-2-yl)-1H-pyrrolo[2,3-b]pyridin-2-yl)-7-methoxy-1-methyl-1H-benzo[d]imidazol-5-yl)methanone] the value was 159 nM; for `C[C@H]1CCCS(=O)(=O)N1c1ccc2cc(-c3nc4cc(C(=O)N5[C@H]6CC[C@@H]5[C@H](N)C6)ccc4n3C3CC3)n(CC3CC3)c2n1` [Example 98, ((1R,2R,4S)-2-amino-7-azabicyclo[2.2.1]heptan-7-yl) (1-cyclopropyl-2-(1-(cyclopropylmethyl)-6-((S)-3-methyl-1,1-dioxido-1,2-thiazinan-2-yl)-1H-pyrrolo[2,3-b]pyridin-2-yl)-1H-benzo[d]imidazol-5-yl)methanone], 18.9 nM; for `C[C@H]1CCCS(=O)(=O)N1c1ccc2cc(-c3nc4cc(C(=O)N5CCC[C@@H](N)C5)ccc4n3C3CC3)n(CC3CC3)c2n1` [Example 99, ((R)-3-aminopiperidin-1-yl)(1-cyclopropyl-2-(1-(cyclopropylmethyl)-6-((S)-3-methyl-1,1-dioxido-1,2-thiazinan-2-yl)-1H-pyrrolo[2,3-b]pyridin-2-yl)-1H-benzo[d]imidazol-5-yl) methanone], 28.4 nM.
As for `C[C@H]1CCCS(=O)(=O)N1c1ccc2cc(-c3nc4cc(C(=O)N5C[C@H]6CC[C@@H]5[C@@H]6N)ccc4n3C3CC3)n(CC3CC3)c2n1` [Example 100, ((1R,4R,7R)-7-amino-2-azabicyclo[2.2.1]heptan-2-yl) (1-cyclopropyl-2-(1-(cyclopropylmethyl)-6-((S)-3-methyl-1,1-dioxido-1,2-thiazinan-2-yl)-1H-pyrrolo[2,3-b]pyridin-2-yl)-1H-benzo[d]imidazol-5-yl)methanone], the IC50 came out at 55.5 nM.
For `COc1cc(C(=O)N2CCC[C@@H](N)C2)cc2nc(-c3cc4ccc(N5[C@@H](C)CCCS5(=O)=O)nc4n3CC3CC3)n(C3CC3)c12` [Example 101, ((R)-3-aminopiperidin-1-yl)(1-cyclopropyl-2-(1-(cyclopropylmethyl)-6-((S)-3-methyl-1,1-dioxido-1,2-thiazinan-2-yl)-1H-pyrrolo[2,3-b]pyridin-2-yl)-7-methoxy-1H-benzo[d]imidazol-5-yl)methanone] the value was 43.4 nM; for `COc1cc(C(=O)N2[C@H]3CC[C@@H]2[C@H](N)C3)cc2nc(-c3cc4ccc(N5[C@@H](C)CCCS5(=O)=O)nc4n3CC3CC3)n(C3CC3)c12` [Example 102, ((1R,2R,4S)-2-amino-7-azabicyclo[2.2.1]heptan-7-yl)(1-cyclopropyl-2-(1-(cyclopropylmethyl)-6-((S)-3-methyl-1,1-dioxido-1,2-thiazinan-2-yl)-1H-pyrrolo[2,3-b]pyridin-2-yl)-7-methoxy-1H-benzo[d]imidazol-5-yl)methanone], 42 nM.
In the case of `COc1cc(C(=O)N2[C@H]3CC[C@@H]2[C@H](N)C3)cc2nc(-c3cc4ccc(N5[C@@H](C)CCCS5(=O)=O)nc4n3CC3CC3)n(C)c12` [Example 103, ((1R,2R,4S)-2-amino-7-azabicyclo[2.2.1]heptan-7-yl) (2-(1-(cyclopropylmethyl)-6-((S)-3-methyl-1,1-dioxido-1,2-thiazinan-2-yl)-1H-pyrrolo[2,3-b]pyridin-2-yl)-7-methoxy-1-methyl-1H-benzo[d]imidazol-5-yl) methanone], the half-maximal inhibitory concentration (IC50) is 22.3 nM.
For `COc1cc(C(=O)N2C[C@H]3CC[C@@H]2[C@@H]3N)cc2nc(-c3cc4ccc(N5[C@@H](C)CCCS5(=O)=O)nc4n3CC3CC3)n(C)c12` [Example 104, ((1R,4R,7R)-7-amino-2-azabicyclo[2.2.1]heptan-2-yl) (2-(1-(cyclopropylmethyl)-6-((S)-3-methyl-1,1-dioxido-1,2-thiazinan-2-yl)-1H-pyrrolo[2,3-b]pyridin-2-yl)-7-methoxy-1-methyl-1H-benzo[d]imidazol-5-yl) methanone] the value was 79.3 nM; for `COc1cc(C(=O)N2CCC[C@@H](N)C2)cc2nc(-c3cc4ccc(N5[C@@H](C)CCCS5(=O)=O)nc4n3CC3CC3)n(C)c12` [Example 105, ((R)-3-aminopiperidin-1-yl)(2-(1-(cyclopropylmethyl)-6-((S)-3-methyl-1,1-dioxido-1,2-thiazinan-2-yl)-1H-pyrrolo[2,3-b]pyridin-2-yl)-7-methoxy-1-methyl-1H-benzo[d]imidazol-5-yl) methanone], 29.6 nM.
The result for `COc1cc(C(=O)N2CCC[C@@H](N)C2)cc2nc(-c3cc4ccc(N5CCCN(C)S5(=O)=O)nc4n3CC3CC3)n(C)c12` [Example 106, (R)-(3-aminopiperidin-1-yl)(2-(1-(cyclopropylmethyl)-6-(6-methyl-1,1-dioxido-1,2,6-thiadiazinan-2-yl)-1H-pyrrolo[2,3-b]pyridin-2-yl)-7-methoxy-1-methyl-1H-benzo[d]imidazol-5-yl)methanone] reads 434 nM.
For `COc1cc(C(=O)N2CCC[C@@H](N)C2)cc2nc(-c3cc4ccc(N5CCCNS5(=O)=O)nc4n3CC3CC3)n(C)c12` [Example 107, (R)-(3-aminopiperidin-1-yl)(2-(1-(cyclopropylmethyl)-6-(1,1-dioxido-1,2,6-thiadiazinan-2-yl)-1H-pyrrolo[2,3-b]pyridin-2-yl)-7-methoxy-1-methyl-1H-benzo[d]imidazol-5-yl) methanone] the value was 538 nM.
Take `COC(=O)Nc1ccc2cc(-c3nc4cc(C(=O)N5CCC[C@@H](N)C5)cc(OC)c4n3C)n(CC3CC3)c2n1` [Example 108, (R)-methyl (2-(5-(3-aminopiperidine-1-carbonyl)-7-methoxy-1-methyl-1H-benzo[d]imidazol-2-yl)-1-(cyclopropylmethyl)-1H-pyrrolo[2,3-b]pyridin-6-yl)carbamate]: the IC50 was determined as 5760 nM.
The result for `COC(=O)N(C)c1ccc2cc(-c3nc4cc(C(=O)N5CCC[C@@H](N)C5)cc(OC)c4n3C)n(CC3CC3)c2n1` [Example 109, (R)-methyl (2-(5-(3-aminopiperidine-1-carbonyl)-7-methoxy-1-methyl-1H-benzo[d]imidazol-2-yl)-1-(cyclopropylmethyl)-1H-pyrrolo[2,3-b]pyridin-6-yl) (methyl)carbamate] reads 401 nM; that for `COC(=O)N(c1ccc2cc(-c3nc4cc(C(=O)N5CCC[C@@H](N)C5)cc(OC)c4n3C)n(CC3CC3)c2n1)C1CCC1` [Example 110, (R)-methyl (2-(5-(3-aminopiperidine-1-carbonyl)-7-methoxy-1-methyl-1H-benzo[d]imidazol-2-yl)-1-(cyclopropylmethyl)-1H-pyrrolo[2,3-b]pyridin-6-yl) (cyclobutyl)carbamate], 509 nM; that for `CCN(C(=O)OC)c1ccc2cc(-c3nc4cc(C(=O)N5CCC[C@@H](N)C5)cc(OC)c4n3C)n(CC3CC3)c2n1` [Example 111, (R)-methyl (2-(5-(3-aminopiperidine-1-carbonyl)-7-methoxy-1-methyl-1H-benzo[b]imidazol-2-yl)-1-(cyclopropylmethyl)-1H-pyrrolo [2,3-b]pyridin-6-yl) (ethyl)carbamate], 234 nM.
In the case of `CCN(C(=O)OC)c1ccc2cc(-c3nc4cc(C(=O)N5CCC[C@@H](N)C5)ccc4n3C3CC3)n(CC3CC3)c2n1` [Example 112, (R)-methyl (2-(5-(3-aminopiperidine-1-carbonyl)-1-cyclopropyl-1H-benzo[d]imidazol-2-yl)-1-(cyclopropylmethyl)-1H-pyrrolo [2,3-b]pyridin-6-yl) (ethyl)carbamate], the IC50 came to 5150 nM.
The result for `CCN(C(=O)OC)c1ccc2cc(-c3nc4cc(C(=O)N5CCC[C@@H](N)C5)ccc4n3C3CC3)n(CC3CC3)c2n1` [Example 113, (R)-methyl (2-(5-(3-aminopiperidine-1-carbonyl)-1-cyclopropyl-1H-benzo[d]imidazol-2-yl)-1-(cyclopropylmethyl)-1H-pyrrolo[2,3-b]pyridin-6-yl)(ethyl)carbamate] reads 196 nM.
As for `COC(=O)N(C)c1ccc2cc(-c3nc4cc(C(=O)N5[C@H]6CC[C@@H]5[C@H](N)C6)cc(OC)c4n3C)n(CC3CC3)c2c1` [Example 114, methyl (2-(5-((1R,2R,4S)-2-amino-7-azabicyclo[2.2.1]heptane-7-carbonyl)-7-methoxy-1-methyl-1H-benzo[d]imidazol-2-yl)-1-(cyclopropylmethyl)-1H-indol-6-yl)(methyl)carbamate], the 50% inhibitory concentration (IC50) is 34.5 nM.
For `CCN(C(C)=O)c1ccc2cc(-c3nc4cc(C(=O)N5CCC[C@@H](N)C5)cc(OC)c4n3C)n(CC3CC3)c2n1` [Example 115, (R)-N-(2-(5-(3-aminopiperidine-1-carbonyl)-7-methoxy-1-methyl-1H-benzo[d]imidazol-2-yl)-1-(cyclopropylmethyl)-1H-pyrrolo [2,3-b]pyridin-6-yl)-N-ethylacetamide] the value was 379 nM; for `CNC(=O)N(C)c1ccc2cc(-c3nc4cc(C(=O)N5CCC[C@@H](N)C5)cc(OC)c4n3C)n(CC3CC3)c2n1` [Example 116, (R)-1-(2-(5-(3-aminopiperidine-1-carbonyl)-7-methoxy-1-methyl-1H-benzo[d]imidazol-2-yl)-1-(cyclopropylmethyl)-1H-pyrrolo[2,3-b]pyridin-6-yl)-1,3-dimethylurea], 496 nM.
